Reference: patent publication US7915292B2, “Antibacterial quinoline derivatives” (Janssen Pharmaceutica NV, priority 2005, dated 2011)

Legend:
M. Smegmatis ATCC607 = experiment: In-vitro anti-bacterial activity against strain M. smegmatis ATCC607 (Alamar Blue growth inhibition); format: cell-based; conditions: 48 hours incubation; for IC50: Mycolicibacterium smegmatis, read-out: M. smegmatis pIC50 (converted)
Protocol: Serial five-fold dilutions (45 μl in 180 μl) were made directly in the microtiter plates from column 2 to 11 using a customised robot system (Zymark Corp., Hopkinton, Mass.). Pipette tips were changed after every 3 dilutions to minimize pipetting errors with high hydrophobic compounds. Untreated control samples with (column 1) and without (column 12) inoculum were included in each microtiter plate. Approximately 250 CFU per well of bacteria inoculum, in a volume of 100 μl in 2.8× Mueller-Hinton broth medium, was added to the rows […]. The same volume of broth medium without inoculum was added to column 12 in row A to H. The cultures were incubated at 37° C. for 48 hours in a humidified 5% CO2 atmosphere (incubator with open air valve and continuous ventilation). At the end of incubation, two days after inoculation, the bacterial growth was quantitated fluorometrically. Therefore Alamar Blue (10×) was added to all wells in a volume of 20 μl and plates were incubated for another 2 hours at […] The fluorescence was read in a computer-controlled fluorometer (Cytofluor, Biosearch) at an excitation wavelength of 530 nm and an emission wavelength of 590 nm (gain 30). The percentage growth inhibition achieved by the compounds was calculated according to standard methods and expressed as pIC50 values.

[1] = test system: Mycobacterium tuberculosis (strain H37RV); experiment: In-vitro method for testing compounds against M. tuberculosis (resazurin growth inhibition); format: cell-based; conditions: 7 days incubation

Structure (SMILES) | M. smegmatis pIC50 (M. Smegmatis ATCC607) | other results
O=C(CN(Cc1ccccc1)C(c1cc2ccccc2o1)c1cc2ccccc2nc1-c1ccccc1)N1CCCC1 (stereo not shown) [Compound 57] | 5.9 | –
O=C(CN(Cc1ccccc1)C(c1cc2ccccc2o1)c1cc2ccccc2nc1-c1ccccc1)N1CCSCC1 (stereo not shown) [Compound 58] | 6.1 | –
COc1nc2ccc(C)cc2cc1C(c1ccccc1)N(CCC(=O)N1CCOCC1)Cc1ccccc1 (stereo not shown) [Compound 60] | 5.3 | –
Cc1ccc2nc(-c3ccccc3)c(C(c3ccccc3)N(C)CC(=O)N3CCN(C)CC3)cc2c1 (stereo not shown) [Compound 62] | 5.1 | –
Cc1ccc2nc(-c3ccccc3)c(C(c3ccccc3)N(C)CC(=O)N3CCOCC3)cc2c1 (stereo not shown) [Compound 63] | 5.1 | –
Cc1ccc2nc(-c3ccccc3)c(C(c3ccccc3)N(CC(=O)N3Cc4ccccc4C3)Cc3ccccc3)cc2c1 (stereo not shown) [Compound 73] | – | M. tuberculosis pIC50 [1]: 4.5
COc1nc2ccc(Br)cc2cc1C(c1ccccc1)N(C)CC(=O)N1CCCC1 (stereo not shown) [Compound 80] | 5.1 | –
COc1nc2ccc(Br)cc2cc1C(c1ccccc1)N(C)CC(=O)N1CCSC1 (stereo not shown) [Compound 81] | 5 | –
COc1nc2ccc(Br)cc2cc1C(c1ccccc1)N(C)CC(=O)N1CCCCC1 (stereo not shown) [Compound 82] | 4.4 | –
COc1nc2ccc(Br)cc2cc1C(c1ccccc1)N(C)CC(=O)N1CCC(C)CC1 (stereo not shown) [Compound 83] | – | IC50 (M. Smegmatis ATCC607): 2510 nM
COc1nc2ccc(Br)cc2cc1C(c1ccccc1)N(C)CC(=O)N1CCCN(C)CC1 (stereo not shown) [Compound 84] | 5.1 | –
COc1nc2ccc(Br)cc2cc1C(c1ccccc1)N(C)CC(=O)N1CC=CCC1 (stereo not shown) [Compound 85] | 5.1 | –
COc1nc2ccc(Br)cc2cc1C(c1ccccc1)N(C)CC(=O)N1CCOCC1 (stereo not shown) [Compound 86] | 4.9 | –
COc1nc2ccc(Br)cc2cc1C(c1ccccc1)N(C)CC(=O)N1CC(C)OC(C)C1 (stereo not shown) [Compound 87] | 5.1 | –
COc1nc2ccc(Br)cc2cc1C(c1ccccc1)N(C)CC(=O)N1CCN(C)CC1 (stereo not shown) [Compound 89] | 5 | –
COc1nc2ccc(Br)cc2cc1C(c1ccccc1)N(C)CC(=O)N1CCN(Cc2ccccc2)CC1 (stereo not shown) [Compound 91] | 4.1 | –
COc1nc2ccc(Br)cc2cc1C(c1ccccc1)N(C)CC(=O)N1CCN(c2ccccn2)CC1 (stereo not shown) [Compound 92] | 5.1 | –

Structure (SMILES) | M. smegmatis pIC50 (M. Smegmatis ATCC607) | other results
COc1nc2ccc(Br)cc2cc1C(c1ccccc1)N(C)CC(=O)N1Cc2ccccc2C1 (stereo not shown) [Compound 95] | 4.9 | –
COc1nc2ccc(Br)cc2c(Cl)c1C(c1ccccc1)N(C)CC(=O)N1CCOCC1 (stereo not shown) [Compound 96] | 5.2 | –
COc1nc2ccc(Br)cc2cc1C(c1ccccc1)N(CC(=O)N1CCOCC1)C(C)C (stereo not shown) [Compound 98] | 5.3 | –
COc1nc2ccc(Br)cc2cc1C(c1ccccc1)N(CC(=O)N1CCOCC1)Cc1ccco1 (stereo not shown) [Compound 101] | 4.9 | –
COc1nc2ccc(Br)cc2cc1C(c1ccccc1)N(CC(=O)N1CCOCC1)Cc1ccccn1 (stereo not shown) [Compound 110] | 5.2 | –
COc1nc2ccc(Br)cc2cc1C(c1ccccc1)N(CC(=O)N1CCSCC1)Cc1ccc2ccccc2n1 (stereo not shown) [Compound 113] | 4.5 | –
COc1nc2ccc(Br)cc2cc1C(c1ccccc1)N(CC(=O)N1CCSCC1)Cc1cccc2ncccc12 (stereo not shown) [Compound 115] | 4.8 | –
COc1nc2ccc(Br)cc2cc1C(c1ccccc1)N(CC(=O)N1CCOCC1)Cc1cccc2ncccc12 (stereo not shown) [Compound 116] | 5.3 | –
COc1nc2ccc(Br)cc2cc1C(c1ccccc1)N(CC(=O)N1CCSCC1)Cc1ccnc2ccccc12 (stereo not shown) [Compound 117] | 4.3 | –
COc1nc2ccc(Br)cc2cc1C(c1ccccc1)N(CC(=O)N1CCOCC1)Cc1ccnc2ccccc12 (stereo not shown) [Compound 118] | 5.6 | –
COc1nc2ccc(Br)cc2cc1C(c1ccccc1)N(CC(=O)N1CCN(C)CC1)Cc1ccnc2ccccc12 (stereo not shown) [Compound 119] | 5.5 | –
O=C(CN(Cc1ccccc1)C(c1ccccc1)c1cc2ccccc2nc1-c1ccccc1)N1CCCCC1 (stereo not shown) [Compound 126] | 6.4 | –
O=C(CN(Cc1ccccc1)C(c1ccccc1)c1cc2ccccc2nc1-c1ccccc1)N1CCSCC1 (stereo not shown) [Compound 127] | 6.5 | –
CCOC(=O)CN(Cc1ccccc1)C(c1cccnc1)c1cc2ccccc2nc1-c1ccccc1 (stereo not shown) [Compound 129] | – | IC50 (M. Smegmatis ATCC607): 1580 nM
CCOC(=O)CN(Cc1ccoc1)C(c1ccccc1)c1cc2cc(Br)ccc2nc1OC (stereo not shown) [Compound 136] | 4.4 | –
CCOC(=O)CN(Cc1ccccn1)C(c1ccccc1)c1cc2cc(Br)ccc2nc1OC (stereo not shown) [Compound 139] | 4.3 | –
COc1nc2ccc(Br)cc2cc1C(c1ccccc1)[N+]([O-])(CC(=O)N1CCOCC1)Cc1ccccc1 (stereo not shown) [Compound 154] | – | IC50 (M. Smegmatis ATCC607): 3980 nM
